Laboratory results as given in patent publication US12285407B2, “Bis-indolylmethane derivatives and uses thereof” (The University of The West Indies, priority 2018, dated 2025).

Legend:
[1] = test system: Klebsiella pneumoniae; experiment: Adjuvant broth microdilution (antibiotic MIC with SP-BIM at 50 μg/mL); format: cell-based; settings: antibiotic alone
[2] = test system: Escherichia coli; experiment: microbe, parasite or virus in culture; format: cell-based; settings: antibiotic alone, Table 6, read-out: MIC of antibiotic, No compound
[3] = test system: clinical strains of Enterococcus faecium; experiment: Kirby Bauer disc diffusion susceptibility profile; format: cell-based; settings: for Zone of clearance: 35° C., 24 hours, average n=3; for Interpretive standard (resistant/susceptible): zones vs EUCAST breakpoints (Table 31)
[4] = test system: Escherichia coli O157:H7; experiment: Rescue concentrations of SP-BIM that reactivate antibiotic; format: cell-based
[5] = test system: clinical antibiotic resistant isolates of Enterococcus faecium; experiment: Checkerboard resistance breaking by SP-BIM 13; format: cell-based; settings: for FIC compound: SP-BIM 13 with the labelled antibiotic; for Interpretation / Σ FIC: antibiotic + SP-BIM 13; for MIC of antibiotic only: antibiotic alone; for FIC antibiotic: combination with SP-BIM 13; for MIC of antibiotic in combination: with SP-BIM 13 at rescue concentration
[6] = test system: MRSA HS 10132; experiment: Systemic non-lethal MRSA infection in mice (organ MRSA load); format: in vivo
[7] = test system: sarA, agrA, RNA III, mecA, blaZ and fnbA genes; experiment: Real time gene expression analysis in MRSA cells; settings: MRSA cells exposed to SP-BIM 13 only, or SP-BIM 13 in combination with ampicillin; 5 and 10 μg mL^−1
[8] = test system: reference pathogen strains; experiment: Checkerboard synergy study, summary over pathogens; format: cell-based; settings: checkerboard with SP-BIM 13
[9] = test system: Streptococcus pyogenes ATCC 19615; experiment: Broth microdilution MIC of SP-BIMs; format: cell-based; settings: ATCC19615, SP-BIM alone, read-out: MIC Streptococcus pyogenes ATCC 19615
[10] = test system: Escherichia coli ATCC 35218; experiment: Broth microdilution MIC of SP-BIMs; format: cell-based; settings: ATCC35218, SP-BIM alone, read-out: MIC Escherichia coli ATCC 35218
[11] = test system: Klebsiella pneumoniae ATCC 49472; experiment: Broth microdilution MIC of SP-BIMs; format: cell-based; settings: ATCC49472, SP-BIM alone, read-out: MIC Klebisella pneumoniae ATCC 49472
[12] = test system: Staphylococcus aureus ATCC 12600; experiment: Broth microdilution MIC of SP-BIMs; format: cell-based; settings: ATCC12600, SP-BIM alone, read-out: MIC Staphylococcus aureus ATCC 12600
[13] = test system: Salmonella typhimurium ATCC 14028; experiment: Broth microdilution MIC of SP-BIMs; format: cell-based; settings: Salmonella enterica, read-out: MIC Salmonella tvpkimurium ATCC 14028
In short: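 S. typhimurium at ~10^6 CFU mL^−1 in cation-adjusted Mueller Hinton broth was exposed to twofold compound dilutions from 250 to 0.02 μg mL^−1 at 35° C. for 18 hours. Resazurin was then added, with 1 hour of shaking. MIC was the lowest concentration showing no blue-to-pink colour change.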

[14] = test system: α-hemolysin production in Staphylococcus aureus; format: cell-based
[15] = test system: Bacillus cereus ATCC 14579; experiment: Broth microdilution MIC of SP-BIMs; format: cell-based; settings: ATCC14579, SP-BIM alone, read-out: MIC Bacillus cereus ATCC 14579

SMILES: CC1(C)S[C@@H]2[C@H](NC(=O)[C@H](N)c3ccccc3)C(=O)N2[C@H]1C(=O)O [Ampicillin, ampicillin]
- MIC of antibiotic, No Compound ([1]; Klebsiella pneumonia, no SP-BIM): >250 µg/mL
- MIC ([1]; Klebsiella pneumoniae, Table 7, read-out: MIC of antibiotic, No compound): > 250 µg/mL
- MIC [2]: 63 µg/mL
- Zone of clearance ([3]; E. faecium strain 15134): 37 mm
- Interpretive standard (resistant/susceptible) ([3]; E. faecium strain 15134): S
- Zone of clearance ([3]; E. faecium strain 21024): 32 mm
- Interpretive standard (resistant/susceptible) ([3]; E. faecium strain 21024): S
- Zone of clearance ([3]; E. faecium strain 21955): 32 mm
- Interpretive standard (resistant/susceptible) ([3]; E. faecium strain 21955): S
- Zone of clearance ([3]; E. faecium strain 22003): 37 mm
- Interpretive standard (resistant/susceptible) ([3]; E. faecium strain 22003): S
- Zone of clearance ([3]; E. faecium strain 22870): 10 mm
- Interpretive standard (resistant/susceptible) ([3]; E. faecium strain 22870): R
- Zone of clearance ([3]; E. faecium strain 23227): 26 mm
- Interpretive standard (resistant/susceptible) ([3]; E. faecium strain 23227): S
- Zone of clearance ([3]; E. faecium strain 23230): 36 mm
- Interpretive standard (resistant/susceptible) ([3]; E. faecium strain 23230): S
- Zone of clearance ([3]; E. faecium strain 23668): 39 mm
- Interpretive standard (resistant/susceptible) ([3]; E. faecium strain 23668): S
- Zone of clearance ([3]; E. faecium strain 24169): 33 mm
- Interpretive standard (resistant/susceptible) ([3]; E. faecium strain 24169): S
- Zone of clearance ([3]; E. faecium strain RC63): 12 mm
- Interpretive standard (resistant/susceptible) ([3]; E. faecium strain RC63): R
- MIC of Ampicillin in combination with […] SP-BIM 27 ([4]; E. coli O157:H7, with […] SP-BIM 27): 2 µg/mL
- MIC ([4]; Escherichia coli, read-out: MIC of Ampicillin): 16 µg/mL
- FIC compound ([5]; E. faecium strain 22870): 0.128
- Interpretation ([5]; E. faecium strain 22870): Synergy (Synergy: FICI≤0.5)
- Σ FIC ([5]; E. faecium strain 22870): <0.14
- MIC of antibiotic only ([5]; E. faecium strain 22870): 250 µg/mL
- FIC antibiotic ([5]; E. faecium strain 22870): 0.008
- MIC of antibiotic in combination ([5]; E. faecium strain 22870): 2 µg/mL
- FIC compound ([5]; E. faecium strain RC63): 0252
- Interpretation ([5]; E. faecium strain RC63): Synergy (Synergy: FICI≤0.5)
- Σ FIC ([5]; E. faecium strain RC63): <0.26
- MIC of antibiotic only ([5]; E. faecium strain RC63): 250 µg/mL
- FIC antibiotic ([5]; E. faecium strain RC63): 0.008
- MIC of antibiotic in combination ([5]; E. faecium strain RC63): 2 µg/mL
- MRSA load in the spleen ([6]; ampicillin only ([…] mg kg^−1), SP-BIM 9 study): 14,622 CFU g^−1
- MRSA counts in liver ([6]; ampicillin only ([…] mg kg^−1), subcutaneous): 3500 CFU mL^−1
- MRSA counts in the liver ([6]; ampicillin only, SP-BIM 9 study): 7605 CFU g^−1

SMILES: Oc1cc(C(c2c[nH]c3ccccc23)c2c[nH]c3ccccc23)cc(O)c1O [SP-BIM 13, 5-(di(1H-indol-3-yl)methyl)benzene-1,2,3-triol]
- expression of both the downstream and regulator genes [7]: significantly reduced
- reduction of most antibiotic MICs ([8]; Gram-positive and Gram-negative pathogens): reduced by tenfold or more
- interaction effect in combinations with trimethoprim [8]: antagonistic
- MIC [9]: 125 µg/mL
- MIC [10]: > 250 µg/mL
- MIC [11]: > 250 µg/mL
- MIC [12]: > 250 µg/mL
- MIC [13]: 250 µg/mL
- MRSA load in the spleen ([6]; SP-BIM 13 only, both levels): did not significantly reduce
- MRSA counts in liver ([6]; ampicillin ([…] mg kg^−1)+5 mg kg^−1 SP-BIM 13): 7900 CFU mL^−1
- MRSA counts in liver ([6]; ampicillin ([…] mg kg^−1)+10 mg kg^−1 SP-BIM 13): 900 CFU mL^−1
- MRSA counts in liver ([6]; ampicillin ([…] mg kg^−1)+25 mg kg^−1 SP-BIM 13): 63 CFU mL^−1
- MRSA load in the spleen ([6]; ampicillin and SP-BIM 13 at 10 and 25 mg kg^−1, vs no treatment, ampicillin only, ampicillin+5 mg kg^−1): significantly lower
- lysis of RBCs [14]: less than 50%
- MIC [15]: 125 µg/mL
